Test results reported in ChEMBL document CHEMBL1201862, “PubChem BioAssay data set” (2004).
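Each compound was tested at five concentrations against cells in 96-well plates for 48 hours. The concentration for 50% growth inhibition is given as GI50.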 The source made the active and inactive calls. No stated cut-off is given here; in the data, active = GI50 up to about 1.1 µM and inactive = higher.

Columns and labels:
Test in all cases: NCI-60 cell line screen, 48 h
[1] = system: 786-0
[2] = system: A498
[3] = system: A549
[4] = system: ACHN
[5] = system: CAKI-1
[6] = system: CCRF-CEM
[7] = system: COLO 205
[8] = system: DLD-1
[9] = system: DMS-114
[10] = system: DMS-273
[11] = system: EKVX
[12] = system: HCC 2998
[13] = system: HCT-116
[14] = system: HCT-15
[15] = system: HL-60
[16] = system: HOP-18
[17] = system: HOP-62
[18] = system: HOP-92
[19] = system: HT-29
[20] = system: IGROV-1
[21] = system: K562
[22] = system: KM-20L2
[23] = system: KM12
[24] = system: LOX IMVI
[25] = system: LXFL 529
[26] = system: M14
[27] = system: M19-MEL
[28] = system: MOLT-4
[29] = system: Malme-3M
[30] = system: NCI-H226
[31] = system: NCI-H23
[32] = system: NCI-H460
[33] = system: NCI-H522
[34] = system: OVCAR-3
[35] = system: OVCAR-4
[36] = system: OVCAR-5
[37] = system: OVCAR-8
[38] = system: RPMI-8226
[39] = system: RXF 393
[40] = system: RXF 631
[41] = system: SF-268
[42] = system: SF-295
[43] = system: SF-539
[44] = system: SK-MEL-28
[45] = system: SK-MEL-5
[46] = system: SK-OV-3
[47] = system: SN12C
[48] = system: SNB-19
[49] = system: SNB-75
[50] = system: SNB-78
[51] = system: SW-620
[52] = system: TK-10
[53] = system: U-251
[54] = system: UACC-257
[55] = system: UACC-62
[56] = system: UO-31
[57] = system: XF498
[58] = system: SK-MEL-2
[59] = system: SR

## N#CCCN(CCC#N)c1ccc(C(=O)NN)cc1
[1]
  GI50: > 100 µM (inactive)
[2]
  GI50: > 100 µM (inactive)
[3]
  GI50: > 100 µM (inactive)
[4]
  GI50: > 100 µM (inactive)
[5]
  GI50: > 100 µM (inactive)
[6]
  GI50: > 100 µM (inactive)
[7]
  GI50: > 100 µM (inactive)
[8]
  GI50: > 100 µM (inactive)
[9]
  GI50: > 100 µM (inactive)
[10]
  GI50: > 100 µM (inactive)
[11]
  GI50: > 100 µM (inactive)
[12]
  GI50: > 100 µM (inactive)
[13]
  GI50: > 100 µM (inactive)
[14]
  GI50: > 100 µM
[15]
  GI50: > 100 µM (inactive)
[16]
  GI50: > 100 µM (inactive)
[17]
  GI50: > 100 µM (inactive)
[18]
  GI50: > 100 µM (inactive)
[19]
  GI50: > 100 µM (inactive)
[20]
  GI50: > 100 µM (inactive)
[21]
  GI50: > 100 µM (inactive)
[22]
  GI50: > 100 µM (inactive)
[23]
  GI50: > 100 µM (inactive)
[24]
  GI50: > 100 µM (inactive)
[25]
  GI50: > 100 µM (inactive)
[26]
  GI50: > 100 µM (inactive)
[27]
  GI50: > 100 µM (inactive)
[28]
  GI50: > 100 µM (inactive)
[29]
  GI50: > 100 µM (inactive)
[30]
  GI50: > 100 µM (inactive)
[31]
  GI50: > 100 µM (inactive)
[32]
  GI50: > 100 µM (inactive)
[33]
  GI50: > 100 µM (inactive)
[34]
  GI50: > 100 µM (inactive)
[35]
  GI50: > 100 µM (inactive)
[36]
  GI50: > 100 µM (inactive)
[37]
  GI50: > 100 µM (inactive)
[38]
  GI50: > 100 µM (inactive)
[39]
  GI50: > 100 µM (inactive)
[40]
  GI50: > 100 µM (inactive)
[41]
  GI50: > 100 µM (inactive)
[42]
  GI50: > 100 µM (inactive)
[43]
  GI50: > 100 µM (inactive)
[44]
  GI50: > 100 µM (inactive)
[45]
  GI50: > 100 µM (inactive)
[46]
  GI50: > 100 µM (inactive)
[47]
  GI50: > 100 µM (inactive)
[48]
  GI50: > 100 µM (inactive)
[49]
  GI50: > 100 µM (inactive)
[50]
  GI50: > 100 µM (inactive)
[51]
  GI50: > 100 µM (inactive)
[52]
  GI50: > 100 µM (inactive)
[53]
  GI50: > 100 µM (inactive)
[54]
  GI50: > 100 µM (inactive)
[55]
  GI50: > 100 µM (inactive)
[56]
  GI50: > 100 µM (inactive)
[57]
  GI50: > 100 µM (inactive)

## COC(=O)C(C(=O)C(=O)Nc1c(C)cccc1C)c1cnc2ccccc2n1 (configuration not stated)
[1]
  GI50: > 100 µM (inactive)
[2]
  GI50: > 100 µM (inactive)
[3]
  GI50: > 100 µM (inactive)
[4]
  GI50: > 100 µM (inactive)
[5]
  GI50: > 100 µM (inactive)
[6]
  GI50: > 100 µM (inactive)
[7]
  GI50: > 100 µM (inactive)
[9]
  GI50: > 100 µM (inactive)
[10]
  GI50: > 100 µM (inactive)
[11]
  GI50: > 100 µM (inactive)
[12]
  GI50: > 100 µM (inactive)
[13]
  GI50: > 100 µM (inactive)
[14]
  GI50: > 100 µM
[15]
  GI50: > 100 µM (inactive)
[16]
  GI50: > 100 µM (inactive)
[18]
  GI50: > 100 µM (inactive)
[19]
  GI50: > 100 µM (inactive)
[20]
  GI50: > 100 µM (inactive)
[21]
  GI50: > 100 µM (inactive)
[22]
  GI50: > 100 µM (inactive)
[23]
  GI50: > 100 µM (inactive)
[24]
  GI50: > 100 µM (inactive)
[25]
  GI50: > 100 µM (inactive)
[26]
  GI50: > 100 µM (inactive)
[28]
  GI50: > 100 µM (inactive)
[29]
  GI50: > 100 µM (inactive)
[30]
  GI50: > 100 µM (inactive)
[31]
  GI50: > 100 µM (inactive)
[32]
  GI50: > 100 µM (inactive)
[33]
  GI50: > 100 µM (inactive)
[35]
  GI50: > 100 µM (inactive)
[36]
  GI50: > 100 µM (inactive)
[37]
  GI50: > 100 µM (inactive)
[38]
  GI50: > 100 µM (inactive)
[39]
  GI50: > 100 µM (inactive)
[40]
  GI50: > 100 µM (inactive)
[41]
  GI50: > 100 µM (inactive)
[42]
  GI50: > 100 µM (inactive)
[44]
  GI50: > 100 µM (inactive)
[58]
  GI50: > 100 µM (inactive)
[45]
  GI50: > 100 µM (inactive)
[46]
  GI50: > 100 µM (inactive)
[47]
  GI50: > 100 µM (inactive)
[48]
  GI50: > 100 µM (inactive)
[49]
  GI50: > 100 µM (inactive)
[50]
  GI50: > 100 µM (inactive)
[59]
  GI50: > 100 µM (inactive)
[51]
  GI50: > 100 µM (inactive)
[52]
  GI50: > 100 µM (inactive)
[53]
  GI50: > 100 µM (inactive)
[54]
  GI50: > 100 µM (inactive)
[55]
  GI50: > 100 µM (inactive)
[56]
  GI50: > 100 µM (inactive)
[57]
  GI50: > 100 µM (inactive)

## O=C(O)CNc1cc(-c2ccccc2)nc(NCC(=O)O)n1
[1]
  GI50: > 100 µM (inactive)
[3]
  GI50: > 100 µM (inactive)
[4]
  GI50: > 100 µM (inactive)
[5]
  GI50: > 100 µM (inactive)
[6]
  GI50: > 100 µM (inactive)
[7]
  GI50: > 100 µM (inactive)
[8]
  GI50: > 100 µM (inactive)
[9]
  GI50: > 100 µM (inactive)
[10]
  GI50: > 100 µM (inactive)
[11]
  GI50: > 100 µM (inactive)
[12]
  GI50: > 100 µM (inactive)
[13]
  GI50: > 100 µM (inactive)
[14]
  GI50: > 100 µM
[15]
  GI50: > 100 µM (inactive)
[16]
  GI50: > 100 µM (inactive)
[17]
  GI50: > 100 µM (inactive)
[18]
  GI50: > 100 µM (inactive)
[19]
  GI50: > 100 µM (inactive)
[20]
  GI50: > 100 µM (inactive)
[21]
  GI50: > 100 µM (inactive)
[22]
  GI50: > 100 µM (inactive)
[23]
  GI50: > 100 µM (inactive)
[24]
  GI50: > 100 µM (inactive)
[25]
  GI50: > 100 µM (inactive)
[26]
  GI50: > 100 µM (inactive)
[27]
  GI50: > 100 µM (inactive)
[28]
  GI50: > 100 µM (inactive)
[29]
  GI50: > 100 µM (inactive)
[30]
  GI50: > 100 µM (inactive)
[31]
  GI50: > 100 µM (inactive)
[32]
  GI50: > 100 µM (inactive)
[33]
  GI50: > 100 µM (inactive)
[34]
  GI50: > 100 µM (inactive)
[35]
  GI50: > 100 µM (inactive)
[36]
  GI50: > 100 µM (inactive)
[37]
  GI50: > 100 µM (inactive)
[38]
  GI50: > 100 µM (inactive)
[40]
  GI50: > 100 µM (inactive)
[42]
  GI50: > 100 µM (inactive)
[43]
  GI50: > 100 µM (inactive)
[44]
  GI50: 49.5 µM (inactive)
[58]
  GI50: > 100 µM (inactive)
[45]
  GI50: > 100 µM (inactive)
[46]
  GI50: > 100 µM (inactive)
[47]
  GI50: > 100 µM (inactive)
[48]
  GI50: > 100 µM (inactive)
[49]
  GI50: > 100 µM (inactive)
[50]
  GI50: > 100 µM (inactive)
[59]
  GI50: > 100 µM (inactive)
[51]
  GI50: > 100 µM (inactive)
[52]
  GI50: > 100 µM (inactive)
[53]
  GI50: > 100 µM (inactive)
[54]
  GI50: > 100 µM (inactive)
[55]
  GI50: > 100 µM (inactive)
[56]
  GI50: > 100 µM (inactive)
[57]
  GI50: > 100 µM (inactive)
